In this assay the target is T1, HIV integrase (HIV-IN) (Human immunodeficiency virus type 1 group M subtype B, UniProt P04585).
T1 construct: employs a purified recombinant integrase
Put plainly: in vitro HIV integrase inhibition assay (3′-processing and DNA strand transfer, purified recombinant integrase, 21-mer duplex oligonucleotide substrate). In kind it is biochemical. To be noted: cell-free assay, 50% reduction in enzymatic activity; read-out: IC50 values against HIV-IN. From the text:
Generally, a particular compound's HIV integrase inhibitory potency can be measured by observing the effects of that compound on the integrase enzyme's catalytic activity. HIV integrase has two catalytic functions: (1) 3′-processing, which removes a dinucleotide unit from the 3′-ends of viral DNA; and (2) DNA strand transfer, which […]. These two catalytic steps can be measured in an in vitro assay which employs a purified recombinant integrase and a 21-mer duplex oligonucleotide substrate corresponding to the U5 region of the HIV long terminal repeat (LTR) sequence. This assay permits simultaneous measurement of inhibition constants for both 3′-processing and DNA strand transfer. Inhibitory concentrations (i.e., IC50 values) are determined based on an observed 50% reduction in enzymatic activity in cell-free assays. (See e.g., Zhao H., Neamati N., Mazumder A., Sunder S., Pommier Y., ad Burke T. “Arylamide Inhibitors of HIV-1 Integrase” J. Med. Chem. 1997, 40, 1186-1194).
Compound 76 (an acetylated derivative of Compound 80), Compound 78 (a symmetrical, hydroxylated derivative of Compound 80), and Compound 82 (an acetylated and methylated derivative of Compound 80) have been prepared in accordance with the various aspects of the present invention and have been tested in accordance with the above-described known method of testing HIV-IN inhibition.

Structures are written as SMILES.

In the case of `CC(=O)Oc1ccc(C=CS(=O)(=O)CS(=O)(=O)C=Cc2ccc(OC(C)=O)c(OC(C)=O)c2)cc1OC(C)=O` [Compound 76], the concentration for half-maximal inhibition (IC50) lay within 73 to 77 µM.

For `O=S(=O)(C=Cc1ccc(O)c(O)c1)CS(=O)(=O)C=Cc1ccc(O)c(O)c1` [Compound 78], the IC50 lay within 4 to 6 µM.

Turning to `COc1cc(C=CS(=O)(=O)CS(=O)(=O)C=Cc2cc(OC)c(OC(C)=O)c(OC(C)=O)c2)cc(OC(C)=O)c1OC(C)=O` [Compound 82], the half-maximal inhibitory concentration (IC50) was found to be 4 µM.

Source of the values: US6812365B2, “Disulfone reagents and methods of preparing and using same” (The Arizona Disease Control Research Commission, priority 1999, dated 2004).
